Measured values taken from patent US11046694B2, “Compounds and methods for treating bacterial infections” (Entasis Therapeutics, Inc., priority 2018, dated 2021).
≈ marks a conversion by molar mass, not a printed value. Counter-ions that a name gives are not always drawn. Each block holds one molecule with its values, some of them ahead of it.

How the values were obtained:
[1] = target: P. aeruginosa PBP1a (Pseudomonas aeruginosa, UniProt Q07806); assay type: biochemical; conditions: P. aeruginosa PBP1a 60 nM, BOCILLIN FL 30 nM, pH 7.0
Chain of P. aeruginosa PBP1a (Q07806 whole entry): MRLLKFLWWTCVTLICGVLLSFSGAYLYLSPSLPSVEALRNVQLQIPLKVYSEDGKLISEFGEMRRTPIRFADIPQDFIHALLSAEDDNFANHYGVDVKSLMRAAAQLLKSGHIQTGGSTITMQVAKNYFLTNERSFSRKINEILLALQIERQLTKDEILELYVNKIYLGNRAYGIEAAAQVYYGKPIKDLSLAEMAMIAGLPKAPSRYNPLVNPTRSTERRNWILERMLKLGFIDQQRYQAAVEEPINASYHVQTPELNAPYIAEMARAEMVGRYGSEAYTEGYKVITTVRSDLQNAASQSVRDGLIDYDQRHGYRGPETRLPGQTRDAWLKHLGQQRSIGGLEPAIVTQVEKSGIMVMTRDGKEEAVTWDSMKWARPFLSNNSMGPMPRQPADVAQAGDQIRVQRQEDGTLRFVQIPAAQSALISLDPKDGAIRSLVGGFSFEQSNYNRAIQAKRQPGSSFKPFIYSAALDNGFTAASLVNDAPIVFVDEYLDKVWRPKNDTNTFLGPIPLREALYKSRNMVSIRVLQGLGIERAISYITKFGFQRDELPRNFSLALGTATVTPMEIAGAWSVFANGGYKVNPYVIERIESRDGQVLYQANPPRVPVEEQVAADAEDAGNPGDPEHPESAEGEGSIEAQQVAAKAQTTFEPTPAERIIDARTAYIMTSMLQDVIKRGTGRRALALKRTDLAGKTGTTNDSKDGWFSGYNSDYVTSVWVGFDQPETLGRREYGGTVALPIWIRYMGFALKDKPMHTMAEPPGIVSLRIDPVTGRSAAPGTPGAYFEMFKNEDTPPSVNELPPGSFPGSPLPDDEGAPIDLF

[2] = target: T1, P. aeruginosa PBP2 (Pseudomonas aeruginosa, UniProt Q9X6V3); assay type: biochemical; conditions: P. aeruginosa PBP2 300 nM, BOCILLIN FL 30 nM, pH 6.2
T1 sequence (Q9X6V3 1-646): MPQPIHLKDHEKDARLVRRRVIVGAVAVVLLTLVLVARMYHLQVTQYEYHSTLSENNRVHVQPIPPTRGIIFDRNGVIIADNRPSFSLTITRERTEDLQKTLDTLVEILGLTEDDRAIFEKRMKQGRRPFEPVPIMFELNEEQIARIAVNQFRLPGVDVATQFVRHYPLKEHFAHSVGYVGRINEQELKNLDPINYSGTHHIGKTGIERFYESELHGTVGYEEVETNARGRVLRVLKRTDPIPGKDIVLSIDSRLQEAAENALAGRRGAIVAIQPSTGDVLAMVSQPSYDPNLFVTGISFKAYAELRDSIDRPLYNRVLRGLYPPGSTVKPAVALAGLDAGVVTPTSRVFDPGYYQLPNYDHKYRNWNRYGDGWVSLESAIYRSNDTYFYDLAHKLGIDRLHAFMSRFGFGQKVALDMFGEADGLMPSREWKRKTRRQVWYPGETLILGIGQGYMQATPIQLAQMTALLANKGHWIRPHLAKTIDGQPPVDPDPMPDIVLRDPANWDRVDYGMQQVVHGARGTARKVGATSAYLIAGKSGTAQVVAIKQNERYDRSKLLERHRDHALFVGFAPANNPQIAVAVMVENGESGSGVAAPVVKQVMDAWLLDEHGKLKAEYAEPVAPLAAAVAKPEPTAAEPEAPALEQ

[3] = target: P. aeruginosa PBP3 (Pseudomonas aeruginosa, UniProt G3XD46); assay type: biochemical; conditions: P. aeruginosa PBP3 60 nM, BOCILLIN FL 30 nM, pH 7.0
Chain of P. aeruginosa PBP3 (G3XD46 whole entry): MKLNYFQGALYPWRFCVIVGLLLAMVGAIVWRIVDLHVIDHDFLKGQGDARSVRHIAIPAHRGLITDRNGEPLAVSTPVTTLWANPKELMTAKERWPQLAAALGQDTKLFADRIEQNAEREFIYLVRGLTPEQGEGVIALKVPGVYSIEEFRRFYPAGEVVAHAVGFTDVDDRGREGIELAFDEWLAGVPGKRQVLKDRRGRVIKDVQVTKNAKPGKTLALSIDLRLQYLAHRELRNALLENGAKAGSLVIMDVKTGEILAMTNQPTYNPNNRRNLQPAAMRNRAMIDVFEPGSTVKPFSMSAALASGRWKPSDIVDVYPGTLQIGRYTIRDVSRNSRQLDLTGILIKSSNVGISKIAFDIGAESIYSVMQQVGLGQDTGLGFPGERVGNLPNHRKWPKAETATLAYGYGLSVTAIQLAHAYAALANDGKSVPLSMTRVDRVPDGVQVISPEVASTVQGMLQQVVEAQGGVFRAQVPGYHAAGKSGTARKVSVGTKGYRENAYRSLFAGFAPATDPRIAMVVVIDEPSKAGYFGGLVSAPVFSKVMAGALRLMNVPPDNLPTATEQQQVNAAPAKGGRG

[4] = system: P. aeruginosa WT (PAO1); experiment: MIC, CLSI broth microdilution, P. aeruginosa; assay type: cell-based; conditions: CLSI broth microdilution; for MIC: Pseudomonas aeruginosa, PAO1, read-out: P. aeruginosa WT (PAO1) MIC
[5] = system: E. coli (ATCC25922); experiment: MIC against E. coli; conditions: for MIC: Escherichia coli, ATCC25922, read-out: E. coli MIC (ATCC25922) (mg/L)
[6] = system: A. baumannii (ARC3495); experiment: MIC against A. baumannii; conditions: for MIC: Acinetobacter baumannii, read-out: A. baumannii MIC (ARC3495) (mg/L)
[7] = system: K. pneumoniae (ATCC700603); experiment: MIC against K. pneumoniae; conditions: for MIC: Klebsiella pneumoniae, ATCC700603, read-out: K. pneumoniae MIC (ATCC700603)

MIC [4]: < 8 µg/mL
MIC [5]: < 8 mg/L
MIC [6]: 8 to 16 mg/L (≈ 22.1 to 44.2 µM)
MIC [7]: 8 to 16 µg/mL (≈ 22.1 to 44.2 µM)
SMILES: CN(O)/C(=N\O)[C@@H]1c2c(cnn2C)[C@@H]2CN1C(=O)N2OS(=O)(=O)O (racemic) [Example 9]
PBP1a acylation rate, k(on) (M^−1 · s^−1) [1]: ** (** represents a k(on) of 100 to 10,000 M^−1 · s^−1)
PBP2 acylation rate, k(on) (M^−1 · s^−1) [2]: * (* represents a k(on) < 100 M^−1 · s^−1)
PBP3 acylation rate, k(on) (M^−1 · s^−1) [3]: ** (** represents a k(on) of 100 to 10,000 M^−1 · s^−1)

MIC [4]: > 16 µg/mL
MIC [5]: 8 to 16 mg/L (≈ 23 to 45.9 µM)
MIC [6]: > 16 mg/L
MIC [7]: 8 to 16 µg/mL (≈ 23 to 45.9 µM)
SMILES: Cn1ncc2c1[C@@H](/C(=N/O)NO)N1C[C@@H]2N(OS(=O)(=O)O)C1=O (racemic) [Example 10]
PBP1a acylation rate, k(on) (M^−1 · s^−1) [1]: * (* represents a k(on) < 100 M^−1 · s^−1)
PBP2 acylation rate, k(on) (M^−1 · s^−1) [2]: * (* represents a k(on) < 100 M^−1 · s^−1)
PBP3 acylation rate, k(on) (M^−1 · s^−1) [3]: ** (** represents a k(on) of 100 to 10,000 M^−1 · s^−1)

MIC [4]: 8 to 16 µg/mL (≈ 22.1 to 44.2 µM)
MIC [5]: < 8 mg/L
MIC [6]: 8 to 16 mg/L (≈ 22.1 to 44.2 µM)
MIC [7]: < 8 µg/mL
SMILES: CON/C(=N\O)[C@@H]1c2c(cnn2C)[C@@H]2CN1C(=O)N2OS(=O)(=O)O (racemic) [Example 11]
PBP1a acylation rate, k(on) (M^−1 · s^−1) [1]: ** (** represents a k(on) of 100 to 10,000 M^−1 · s^−1)
PBP2 acylation rate, k(on) (M^−1 · s^−1) [2]: * (* represents a k(on) < 100 M^−1 · s^−1)
PBP3 acylation rate, k(on) (M^−1 · s^−1) [3]: *** (*** represents a k(on) > 10,000 M^−1 · s^−1)

MIC [4]: > 16 µg/mL
MIC [5]: < 8 mg/L
MIC [6]: > 16 mg/L
MIC [7]: > 16 µg/mL
SMILES: CN/C(=N\O)[C@H]1c2c(cnn2C)[C@H]2CN1C(=O)N2OS(=O)(=O)O (stereo in doubt) [Example 41, Sodium (4S*,8R*)-8-((Z)—N′-hydroxy-N-methylcarbamimidoyl)-1-methyl-6-oxo-4,8-dihydro-1H-4,7-methanopyrazolo[3,4-e][1,3]diazepin-5(6H)-yl hydrogen sulfate]
PBP1a acylation rate, k(on) (M^−1 · s^−1) [1]: * (* represents a k(on) < 100 M^−1 · s^−1)
PBP2 acylation rate, k(on) (M^−1 · s^−1) [2]: * (* represents a k(on) < 100 M^−1 · s^−1)
PBP3 acylation rate, k(on) (M^−1 · s^−1) [3]: ** (** represents a k(on) of 100 to 10,000 M^−1 · s^−1)

Second part, the molecule before the results:

SMILES: Cn1ncc2c1[C@@H](/C(=N/O)NCc1ccc(N)cc1)N1C[C@@H]2N(OS(=O)(=O)O)C1=O (racemic) [Example 12]
PBP1a acylation rate, k(on) (M^−1 · s^−1) [1]: ** (** represents a k(on) of 100 to 10,000 M^−1 · s^−1)
PBP2 acylation rate, k(on) (M^−1 · s^−1) [2]: * (* represents a k(on) < 100 M^−1 · s^−1)
PBP3 acylation rate, k(on) (M^−1 · s^−1) [3]: ** (** represents a k(on) of 100 to 10,000 M^−1 · s^−1)
MIC [4]: > 16 µg/mL
MIC [5]: < 8 mg/L
MIC [6]: > 16 mg/L
MIC [7]: > 16 µg/mL

SMILES: Cn1ncc2c1[C@@H](/C(C#N)=N/O)N1C[C@@H]2N(OS(=O)(=O)O)C1=O (racemic) [Example 13]
PBP1a acylation rate, k(on) (M^−1 · s^−1) [1]: * (* represents a k(on) < 100 M^−1 · s^−1)
PBP2 acylation rate, k(on) (M^−1 · s^−1) [2]: * (* represents a k(on) < 100 M^−1 · s^−1)
PBP3 acylation rate, k(on) (M^−1 · s^−1) [3]: ** (** represents a k(on) of 100 to 10,000 M^−1 · s^−1)
MIC [4]: > 16 µg/mL
MIC [5]: < 8 mg/L
MIC [6]: > 16 mg/L
MIC [7]: > 16 µg/mL

SMILES: CN/C(=N\OC(N)=O)[C@@H]1c2c(cnn2C)[C@@H]2CN1C(=O)N2OS(=O)(=O)O (racemic) [Example 14, pyridium (4R,8S)-8-((Z)—N′-(carbamoyloxy)-N-methylcarbamimidoyl)-1-methyl-6-oxo-4,8-dihydro-1H-4,7-methanopyrazolo[3,4-e][1,3]diazepin-5(6H)-yl hydrogen sulfate]
PBP1a acylation rate, k(on) (M^−1 · s^−1) [1]: ** (** represents a k(on) of 100 to 10,000 M^−1 · s^−1)
PBP2 acylation rate, k(on) (M^−1 · s^−1) [2]: * (* represents a k(on) < 100 M^−1 · s^−1)
PBP3 acylation rate, k(on) (M^−1 · s^−1) [3]: *** (*** represents a k(on) > 10,000 M^−1 · s^−1)
MIC [4]: < 8 µg/mL
MIC [5]: < 8 mg/L
MIC [6]: 8 to 16 mg/L
MIC [7]: < 8 µg/mL

SMILES: Cn1ncc2c1[C@@H](C1=NOC(C(=O)O)C1)N1C[C@@H]2N(OS(=O)(=O)O)C1=O (mixture of isomers) [Example 35, 3-((4R,8S)-1-methyl-6-oxo-5-(sulfooxy)-4,5,6,8-tetrahydro-1H-4,7-methanopyrazolo[3,4-e][1,3]diazepin-8-yl)-4,5-dihydroisoxazole-5-carboxylic acid]
PBP1a acylation rate, k(on) (M^−1 · s^−1) [1]: * (* represents a k(on) < 100 M^−1 · s^−1)
PBP2 acylation rate, k(on) (M^−1 · s^−1) [2]: * (* represents a k(on) < 100 M^−1 · s^−1)
PBP3 acylation rate, k(on) (M^−1 · s^−1) [3]: ** (** represents a k(on) of 100 to 10,000 M^−1 · s^−1)
MIC [4]: > 16 µg/mL
MIC [5]: < 8 mg/L
MIC [6]: > 16 mg/L
MIC [7]: > 16 µg/mL

SMILES: Cn1ncc2c1[C@@H](C1=NOC(Cc3ccccc3)C1)N1C[C@@H]2N(OS(=O)(=O)O)C1=O (mixture of isomers) [Example 36]
PBP1a acylation rate, k(on) (M^−1 · s^−1) [1]: ** (** represents a k(on) of 100 to 10,000 M^−1 · s^−1)
PBP2 acylation rate, k(on) (M^−1 · s^−1) [2]: * (* represents a k(on) < 100 M^−1 · s^−1)
PBP3 acylation rate, k(on) (M^−1 · s^−1) [3]: ** (** represents a k(on) of 100 to 10,000 M^−1 · s^−1)
MIC [4]: > 16 µg/mL
MIC [5]: < 8 mg/L
MIC [6]: > 16 mg/L
MIC [7]: > 16 µg/mL

SMILES: Cn1ncc2c1[C@@H](C1=NOC(Cc3ccccc3)C1)N1C[C@@H]2N(OS(=O)(=O)O)C1=O (mixture of isomers) [Example 37]
PBP1a acylation rate, k(on) (M^−1 · s^−1) [1]: * (* represents a k(on) < 100 M^−1 · s^−1)
PBP2 acylation rate, k(on) (M^−1 · s^−1) [2]: * (* represents a k(on) < 100 M^−1 · s^−1)
PBP3 acylation rate, k(on) (M^−1 · s^−1) [3]: ** (** represents a k(on) of 100 to 10,000 M^−1 · s^−1)
P. aeruginosa WT (PAO1) MIC (mg/L) [4]: * (* represents an MIC > 16 mg/L)
E. coli MIC (ATCC25922) (mg/L) [5]: *** (*** represents an MIC < 8 mg/L)
A. baumannii MIC (ARC3495) (mg/L) [6]: * (* represents an MIC > 16 mg/L)
K. pneumoniae MIC (ATCC700603) [7]: * (* represents an MIC > 16 mg/L)

SMILES: CC1C([C@@H]2c3c(cnn3C)[C@@H]3CN2C(=O)N3OS(=O)(=O)O)=NOC1CO (mixture of isomers) [Example 39, Pyridium (4R,8S)-8-(5-(hydroxymethyl)-4-methyl-4,5-dihydroisoxazol-3-yl)-1-methyl-6-oxo-4,8-dihydro-1H-4,7-methanopyrazolo[3,4-e][1,3]diazepin-5(6H)-yl hydrogen sulfate]
PBP1a acylation rate, k(on) (M^−1 · s^−1) [1]: * (* represents a k(on) < 100 M^−1 · s^−1)
PBP2 acylation rate, k(on) (M^−1 · s^−1) [2]: * (* represents a k(on) < 100 M^−1 · s^−1)
PBP3 acylation rate, k(on) (M^−1 · s^−1) [3]: ** (** represents a k(on) of 100 to 10,000 M^−1 · s^−1)
MIC [4]: > 16 µg/mL
MIC [5]: < 8 mg/L
MIC [6]: > 16 mg/L
MIC [7]: > 16 µg/mL

SMILES: CN/C(=N\O)[C@@H]1c2c(cnn2C)[C@@H]2CN1C(=O)N2OS(=O)(=O)O (stereo in doubt) [Example 1, sodium (4R,8S)-8-((Z)—N′-hydroxy-N-methylcarbamimidoyl)-1-methyl-6-oxo-4,8-dihydro-1H-4,7-methanopyrazolo[3,4-e][1,3]diazepin-5(6H)-yl sulfate]
PBP1a acylation rate, k(on) (M^−1 · s^−1) [1]: ** (** represents a k(on) of 100 to 10,000 M^−1 · s^−1)
PBP2 acylation rate, k(on) (M^−1 · s^−1) [2]: * (* represents a k(on) < 100 M^−1 · s^−1)
PBP3 acylation rate, k(on) (M^−1 · s^−1) [3]: *** (*** represents a k(on) > 10,000 M^−1 · s^−1)
MIC [4]: < 8 µg/mL
MIC [5]: < 8 mg/L
MIC [6]: < 8 mg/L
MIC [7]: < 8 µg/mL
